Measurements as given in patent US4544660A, “Pharmaceutically active tropanes” (Beecham Group p.l.c., priority 1978, dated 1985).

Assays:
Assay type in all cases: in vivo
gastric emptying = assay: Increase in gastric emptying: reversal of apomorphine induced delay in gastric emptying in the rat; design: key to III(b) Increase in Gastric Emptying: IA: inactive at the dose in the brackets, mg/Kg s.c; settings: 10 mg/kg s.c.; for III(b) Increase in Gastric Emptying: apomorphine HCl 5 mg/kg s.c. induced delay
Procedure: (b) Increase in gastric emptying: reversal of apomorphine induced delay in gastric emptying in the rat
Rats equipped with chromic gastric fistulae were used and it was through this that 5 ml of a test meal (5 ml phosphate buffer at pH 9) was administered and recovered. The % recovery of the standard meal after remaining in the stomach for 10 minutes was taken as an index of gastric emptying. Delay in gastric emptying was induced by the administration of apomorphine HCl (5 mg/kg subcutaneously) which was given 15 minutes prior to the subcutaneous administration of the compound. The % recoveries of the test meal were determined at 15-25 and 45-55 minutes post-dosing with the compound and compared with vehicle only dosed animals set up simultaneously. Six animals were used for each group.

intragastric pressure = assay: Increase in intragastric pressure in the rat; design: III(a) Increase in Intragastric Pressure Dose (minimum dose for activity): unit not given here; settings: s.c., 40 minute period after administration; for minimal effective dose: sc, 40 min, read-out: III(a) Increase in Intragastric Pressure Dose (minimum dose for activity)
Procedure: (a) Increase in intragastric pressure in the rat
Intragastric pressure changes were recorded from previously starved conscious but restrained rats using a saline filled catheter inserted into the lumen of the stomach via a permanent gastric fistula. The catheter was connected to a physiological pressure transducer and pressure changes recorded on a hot wire pen recorder. In each animal a pre-dose period of 40 minutes was allowed to obtain a measure of spontaneous activity. An index of activity was obtained by measuring the average height of pressure waves during 10 minute periods. Values for 4 such periods were obtained during assessment of spontaneous activity and for the 40 minute period after the subcutaneous administration of the compounds. Students `t` test was applied to the difference in average values obtained for spontaneous and post-compound activity.

Dopamine Receptor [1] = assay: Inhibition of apomorphine induced stereotype behaviour in the rat; settings: s.c., apomorphine induced, complete inhibition, IA(x) = inactive at dose in brackets
Excerpt: (§1) I. Dopamine Receptor Blocking Activity in the Central Nervous System
(a) Inhibition of apomorphine induced stereotype behaviour in the rat
(method of Ernst (1967), Psychopharmacologia (Berl.) 10 316-323).

Dopamine Receptor [2] = assay: Inhibition of apomorphine induced climbing in the mouse; settings: p.o., apomorphine 1 mg/kg s.c., complete inhibition
Procedure: as §1
(b) Inhibition of apomorphine induced climbing in the mouse
The test is based on that described by Protais, P., Constantin, J. and Schwartz J.C. (1976), Psychopharmacology, 50, 1-6.
Apomorphine 1 mg/kg s.c. induces mice to climb the wall of a wire cage (inverted food hopper--11×7.5×18 cm high). Mice acclimatised in their home cages in groups of 5 are placed under the hoppers immediately after the injection of apomorphine 1 mg/kg s.c. At 10,20 and 30 minutes after injection climbing behaviour is scored. The mice are observed for 30 seconds and scored according to the position they spend the majority of time in, score 0--four paws on floor of cage; score 1--fore paws only on walls; score 2--all paws on wall of cage. The scores at all 3 times and for each mouse are summed and mice drug treated orally compared to mice receiving apomorphine only. A saline only treated group is also included and any score, generally <5% of maximum taken into account.

vomiting response = assay: Anti-emetic activity in the dog (apomorphine induced vomiting); settings: Canis lupus familiaris, 30 min before apomorphine HCl 0.1 mg/kg s.c.; for ED100: s.c., complete inhibition, read-out: II Anti-Emetic Activity Dose, Complete Inhibition
Procedure: II. Anti-emetic activity in the dog
Compounds were administered subcutaneously 30 minutes prior to administration of a standard dose of apomorphine HCl (0.1 mg/kg subcutaneously) and the vomiting response compared to that obtained when the same animals were dosed with apomorphine HCl and vehicle only.

| Compound | minimal effective dose (intragastric pressure) [mg/kg] | I(a) Dose Inhibiting Stereotype Behaviour (dose for complete inhibition) (Dopamine Receptor [1]) | I(b) Anti-Climbing Activity Dose, Complete Inhibition (Dopamine Receptor [2]) | ED100 (vomiting response) [mg/kg] | also measured |
| --- | --- | --- | --- | --- | --- |
| COc1cc(N)c(Cl)cc1C(=O)N[C@@H]1C[C@H]2CCC[C@@H](C1)N2C [Compound 22, 4-amino-5-chloro-2-methoxy-N-(3'β-[9'-methyl-9'-azabicyclo[3.3.1]-nonyl])-benzamide] | 1 | IA(25) | IA (inactive at 10 mg/Kg p.o.) | – | III(b) Increase in Gastric Emptying (gastric emptying): IA(25) |
| COc1cc(N)c(Cl)cc1C(=O)N[C@@H]1C[C@H]2CC[C@@H](C1)N2Cc1ccc(Cl)cc1 [Compound 16, 4amino-5-chloro-2-methoxy-N-(3β-[8'[4"chlorobenzyl]-8'-azabicyclo[3.2.1]octyl])-benzamide] | – | – | 2 mg/kg | – | – |
| C=CCN1[C@@H]2CC[C@H]1C[C@H](NC(=O)c1cc(Cl)c(N)cc1OC)C2 [Compound 32, 4-amino-5-chloro-2-methoxy-N-(3'β-[8'-ally-8-azabicyclo[3.2.1]octyl])benzamide] | – | – | – | 0.2 | – |
| COc1cc(N)c(Cl)cc1C(=O)N[C@@H]1C[C@H]2CC[C@@H](C1)[N+]2(C)Cc1ccccc1 (stereo partly drawn) [Compound 10, 4-Amino-5-chloro-2-methoxy-N-(3'β-[8'-benzyl]-8'-azabicyclo[3.2.1]octyl)-benzamide methobromide] | 0.25 | – | IA(2) | – | – |
| COc1cc(N)c(Cl)cc1C(=O)N[C@H]1C[C@H]2CC[C@@H](C1)N2Cc1ccccc1 [Compound 3, 4-amino-5-chloro-2-methoxy-N-(3',α-[8'-benzyl]nortropyl)benzamide] | – | 50 mg/kg | – | 0.05 | – |
| COc1ccccc1C(=O)N[C@@H]1C[C@H]2CC[C@@H](C1)N2Cc1ccccc1 [Compound 9, 2-Methoxy-N-(3'β-[8'-benzyl-8'-azabicyclo-[3.2.1]-octyl])-benzamide] | – | – | 10 mg/kg | 0.1 | – |
| CCOc1ccc(CN2[C@@H]3CC[C@H]2C[C@H](NC(=O)c2cc(Cl)c(N)cc2OC)C3)cc1 [Compound 15, 4amino-5-chloro-2-methoxy-N-(3β-[8'[4"ethoxybenzyl]-8'-azabicyclo[3.2.1]octyl])-benzamide] | – | – | 10 mg/kg | 0.1 | – |
| COc1ccc(S(N)(=O)=O)cc1C(=O)N[C@@H]1C[C@H]2CC[C@@H](C1)N2Cc1ccccc1 [Compound 8, 5-Sulphamoyl-2-methoxy-N-(3'β-[8'-benzyl]-8'-azabicyclo-[3.2.1]-octyl)-benzamide] | – | – | IA (inactive at 10 mg/Kg p.o.) | 0.1 | III(a) Increase in Intragastric Pressure Dose (minimum dose for activity) (intragastric pressure): IA(5) |
| COc1cc(N)c(Cl)cc1C(=O)NC1CC2CCC(C1)N2Cc1ccccc1 (stereo not drawn) [Compound 2, 4-amino-5-chloro-2-methoxy-N-(3'α, 8-[8'-benzyl]8-azabicyclo[3,2,1]octyl)benzamide] | – | 10 mg/kg | – | 0.0025 | % Recovery of test meal, mean ± S.E. of mean, 15-25 mins. (gastric emptying; 15-25 mins post dosing, apomorphine, printed with **, apomorphine + vehicle 72.4 ± 5.1): 37.4 ± 6.7%; % Recovery of test meal, mean ± S.E. of mean, 45-55 mins. (gastric emptying; 45-55 mins post dosing, apomorphine, printed with ***, apomorphine + vehicle 60.7 ± 7.3): 18.3 ± 1.1% |
| COc1cc(N)c(Cl)cc1C(=O)N(C)[C@H]1C[C@H]2CC[C@@H](C1)N2Cc1ccccc1 [Compound 6, 4-Amino-5-chloro-2-methoxy-N-methyl-N-(3'α-[8'-benzyl-8'-azabicyclo[3.2.1]octyl])benzamide] | 10 | IA(50) | IA (inactive at 10 mg/Kg p.o.) | – | III(b) Increase in Gastric Emptying (gastric emptying): IA(50) |
| COc1cc(N)c(Cl)cc1C(=O)N[C@@H]1C[C@H]2CC[C@@H](C1)N2CC(C)C [Compound 28, 4-amino-5-chloro-2-methoxy-N-(3'β-[8'-isobutyl-8'-azabicyclo-[3.2.1]-octyl])-benzamide] | 5 | – | – | 0.2 | – |
| COc1cc(N)c(Cl)cc1C(=O)N[C@H]1C[C@H]2CCC[C@@H](C1)N2Cc1ccccc1 [Compound 11, 4-amino-5-chloro-2-methoxy-N-(3'α-[9'-benzyl-9'-azabicyclo-[3,3,1]-nonyl])-benzamide] | 1 | IA(50) | IA (inactive at 10 mg/Kg p.o.) | – | – |
| COc1cc(N)c(Cl)cc1C(=O)N[C@@H]1C[C@H]2CC[C@@H](C1)N2C(C)C [Compound 25, 4-amino-5-chloro-2-methoxy-N-(3'β-[8'-iso-propyl-8'-azabicyclo[3.2.1]-octyl])benzamide] | 5 | IA(25) | IA (inactive at 10 mg/Kg p.o.) | – | III(b) Increase in Gastric Emptying (gastric emptying): IA; ED50 (vomiting response; sc, ED50, read-out: II Anti-Emetic Activity Dose, ED50): 0.8 mg/kg |
| CCN1[C@@H]2CC[C@H]1C[C@H](NC(=O)c1cc(Cl)c(N)cc1OC)C2 [Compound 23, 4-amino-5-chloro-2-methoxy-N-(3'β-[8'-ethyl-8'-azabicyclo[3.2.1]octyl])benzamide] | 1 to 10 | IA(25) | IA (inactive at 10 mg/Kg p.o.) | 1.6 | III(b) Increase in Gastric Emptying (gastric emptying): 25% |
| CCCN1[C@@H]2CC[C@H]1C[C@H](NC(=O)c1cc(Cl)c(N)cc1OC)C2 [Compound 24, 4-amino-5-chloro-2-methoxy-N-(3'β-[8'-n-propyl-8'-azabicyclo[3.2.1]-octyl])benzamide] | 5 to 10 | IA(25) | IA (inactive at 10 mg/Kg p.o.) | 0.4 | III(b) Increase in Gastric Emptying (gastric emptying): IA(25) |
| COc1cc(N)c(Cl)cc1C(=O)N[C@H]1C[C@H]2CCC[C@@H](C1)N2C [Compound 21, 4-amino-5-chloro-2-methoxy-N-(3'α-[9'-methyl-9'-azabicyclo[3.3.1]nonyl])benzamide] | 5 | IA(50) | 10 mg/kg | – | – |
| COc1ccc(CN2[C@@H]3CC[C@H]2C[C@H](NC(=O)c2cc(Cl)c(N)cc2OC)C3)cc1 [Compound 14, 4amino-5-chloro-2-methoxy-N-(3β-[8'[4"methoxybenzyl]-8'-azabicyclo[3.2.1]octyl])-benzamide] | – | – | 10 mg/kg | 0.1 | – |
| COc1cc(N)c(Cl)cc1C(=O)N[C@@H]1C[C@H]2CC[C@@H](C1)N2C1CCCCC1 [Compound 31, 4-amino-5-chloro-2-methoxy-N-(3'β-[8'-cyclohexyl-8-azabicyclo[3.2.1]octyl])benzamide] | – | – | IA (inactive at 10 mg/Kg p.o.) | 0.25 | – |
